Assay results: ChEMBL document CHEMBL1944581, “Synthesis and characterization of fluorinated homocysteine derivatives as potential molecular probes for ¹⁹F magnetic resonance spectroscopy and imaging” (Bioorg Med Chem Lett, 2011)

What was measured:
Type in all cases: ADME
Albumin [1] = biological target: T1, Albumin (Homo sapiens, UniProt P02768); experiment: Binding affinity to human serum albumin in phosphate buffer assessed as N-homocysteinylation of protein at 6.2 mM at pH 7.43 at 37 degC after 18 hrs by SDS-PAGE-based 19F-NMR spectroscopy; settings: isolated protein, pH 7.43, 18 h, 6200 µM
T1 sequence (P02768 whole entry): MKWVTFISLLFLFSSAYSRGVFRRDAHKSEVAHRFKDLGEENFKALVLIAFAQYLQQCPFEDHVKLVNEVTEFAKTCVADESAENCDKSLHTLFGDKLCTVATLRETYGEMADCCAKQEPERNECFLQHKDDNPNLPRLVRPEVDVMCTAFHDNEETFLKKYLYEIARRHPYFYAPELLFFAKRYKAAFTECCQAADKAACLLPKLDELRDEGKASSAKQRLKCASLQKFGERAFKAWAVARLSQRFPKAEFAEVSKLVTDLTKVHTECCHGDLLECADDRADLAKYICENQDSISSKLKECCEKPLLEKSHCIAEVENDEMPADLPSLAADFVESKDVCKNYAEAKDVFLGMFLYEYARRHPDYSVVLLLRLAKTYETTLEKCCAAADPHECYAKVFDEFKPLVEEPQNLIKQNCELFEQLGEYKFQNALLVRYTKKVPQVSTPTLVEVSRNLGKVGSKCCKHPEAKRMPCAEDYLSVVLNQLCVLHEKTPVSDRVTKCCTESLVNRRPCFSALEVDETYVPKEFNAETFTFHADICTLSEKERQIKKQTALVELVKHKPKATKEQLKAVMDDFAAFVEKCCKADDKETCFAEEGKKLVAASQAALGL

Albumin [2] = biological target: T1, Albumin; experiment: Binding affinity to human serum albumin in phosphate buffer assessed as N-homocysteinylation of protein by MALDI-TOF scpectroscopy; settings: isolated protein
Albumin [3] = biological target: T1, Albumin; experiment: Binding affinity to human serum albumin in human plasma assessed as protein N-homocysteinylation level at 37 degC for 27 hrs by SDS-PAGE-based 19F-NMR spectroscopy

Measured: Activity

O=C1SCCC1NC(=O)C(F)(F)F (stereo not drawn)
Active: all assays above
